Results taken from US8835510B2, “Methods and compositions for treating conditions mediated by oxidative stress or electrophilic environmental toxins” (priority 2010, dated 2014).
Values joined by “and” are separate entries in the source; they are usually repeats but may differ in a detail not shown here. Equal entries are not always repeated. “Also recorded” adds a separate entry of the source.

Assays:
[1] = Ferrous ion chelation (method of Dairam et al.); conditions: for EC50: read-out: concentration at which 50% Fe^2+ chelation occurs
[2] = pKa and enolate ionization of enol compounds; format: physicochemical; conditions: for fraction in the anionic enolate state: pH 7.4 (neutral / cellular pH); for increase in enolate concentration: pH 9.0 relative to pH 7.4
[3] = Free radical scavenging (DPPH absorbance method of Ak and Gulcin)
Experimental: The relative abilities of selected 1,3-dicarbonyl compounds to scavenge free radicals were determined using the spectrophotometric method of Ak and Gulcin (2008)^4 that measures changes in the absorbance of the 2,2-diphenyl-1-picrylhydrazyl radical.

MN9D cells [4] = experiment: Cell viability (trypan blue) in H2O2-exposed MN9D cultures; conditions: for concentration dependence of protection against H2O2: graded concentrations: 2-ACP 250-750 μM, AcAc 500-1500 μM (range-finding 50-1000 μM); for protection against H2O2-induced cell death: test compound 750 μM (phloretin 100 μM); for protection against H2O2-induced cytotoxicity: FIG. 7
Experimental: (§1) As a more complex biological model, a determination was made of the relative abilities of the 1,3-dicarbonyls to protect MN9D cells, a dopaminergic cell line, from acrolein- (FIG. 6) or hydrogen peroxide (H2O2)-induced cell death (FIG. 7). Briefly, two days after plating, cells were incubated with AcAc (750 μM) for one hr followed by exposure to graded concentrations of either acrolein (0.50-150 μM×24 hrs) or H2O2 (50-750 μM×24 hrs). Cell viability was determined by trypan blue (0.1%) exclusion. Living cells were counted in a hemocytometer and total cells per dish were calculated.
This system represents a more complete model of oxidative stress since the hydroxyl radical formed from intracellular H2O2 during the Fenton reaction, subsequently mediates the generation of toxic aldehyde by-products such as acrolein and 4-hydroxy-2-nonenal (HNE).

MN9D cells [5] = experiment: Cell viability (trypan blue) in acrolein-exposed MN9D cultures; conditions: for concentration dependence of protection against acrolein: graded concentrations: 2-ACP 100-750 μM, AcAc 250-1000 μM (range-finding 50-1000 μM); for protection against acrolein-induced cell death (words): pre-incubation 60 minutes, 750 μM each (phloretin 100 μM); for increase in acrolein LC50: test compound 750 μM pre-incubation
Experimental: as §1

Aqueous solubility = format: physicochemical
[6] = Kinetic assay of acrolein-induced N-acetyl cysteine (NAC) sulfhydryl loss (DTNB method); conditions: for sulfhydryl (NAC) protection, pre-incubation: acrolein pre-incubated with test compound, NAC added one hour later; for rate of sulfhydryl loss (mean rate±SE): NAC + acrolein 150 μM + test compound 50 μM co-incubated, Krebs buffer pH 7.4, 30° C.; for rate of acrolein-induced sulfhydryl (NAC) loss (mean rate±95% confidence interval): pH 7.4; for ability to slow acrolein-induced NAC thiol loss: co-incubation, test compound 50 μM, pH 7.4 (FIG. 3A)
Source text: As an index of cytoprotection, these studies focused on the abilities of 1,3-dicarbonyl compounds to prevent electrophile-induced loss of protein and non-protein sulfhydryl groups. This experimental focus is based on substantial evidence that soft electrophiles, like acrolein, produce toxicity by forming Michael-type adducts with soft nucleophilic thiolate (anionic sulfhydryl) groups on functionally critical proteins^9, 17, 22, 56, 57 (reviewed in^28, 58, 62, 77, 94). […] To test this hypothesis, a determination was made of the ability of AcAc and other structurally related enol analogs to prevent sulfhydryl (nucleophile) adduction by acrolein (electrophile)^56. […] Free sulfhydryl concentrations were determined over time (up to 15 mins) by the DTNB method of LoPachin et al.^52.
Therefore, as a kinetic index of competitive thiol protection by enolate sequestration, the relative in vitro abilities of 1,3-dicarbonyl compounds and phloretin to slow the rate of acrolein-induced sulfhydryl loss were measured.

CCl4-intoxicated rats = experiment: Protection from carbon tetrachloride-induced hepatotoxicity in rats; format: in vivo, rat; conditions: 2-ACP 200 mg/kg/d by gavage, six daily doses, then CCl4 30 μl ip; plasma 24 hours after
Experimental: (§2) This study was carried out in accordance with the NIH Guide for Care and Use of Laboratory Animals and approved by the Montefiore Medical Center Animal Care and Use Committee. Adult male rats (Sprague-Dawley, Taconic Farms, Germantown, N.Y., USA) were used in this study. Rats were housed individually in polycarbonate boxes, and drinking water and Purina Rodent Laboratory Chow (Purina Mills, Inc., St. Louis, Mo., USA) were available ad libitum.
(§3) Male rats (200-250 gm) were injected (i.p.) with 2-ACP at three different daily dose-rates: 100, 200 or 300 mg/kg/d×14 days. Rats were observed 3 times per week for signs of developing toxicity; i.e., body weight loss, general appearance, water/food consumption, gait performance and home cage behavior. […] As a model of in vivo oxidative stress, rats (200-250 gm) were administered 30 μl of carbon tetrachloride (CCl4) in corn oil (ip) following six daily doses of 2-ACP (200 mg/kg/d) by gavage. […] These findings indicate that 2-ACP decreased the degree of hepatic cell death caused by CCl4.

[7] = test system: acrolein-exposed striatal synaptosomes; experiment: Protection against acrolein-induced inhibition of 3H-dopamine transport in striatal synaptosomes; format: cell-based, rat; conditions: for change in acrolein IC50 for inhibition of DA transport: test compound 500 μM, Krebs buffer pH 7.4, 30° C., 15 mins (FIG. 5A)
[8] = test system: acrolein-exposed striatal synaptosomes; experiment: Protection against acrolein-induced thiol loss in striatal synaptosomes (DTNB); format: cell-based, rat; conditions: for cytoprotection / thiol protection in acrolein-exposed synaptosomes: pH 7.4, test compound 500 μM
Experimental: Therefore, as an investigation of possible cytoprotection, a determination was made of the relative abilities of the above 1,3-dicarbonyl structural series to prevent thiol loss in acrolein-exposed rat striatal synaptosomes (isolated CNS nerve terminals). Synaptosomes were prepared according to the methods of LoPachin et al.^52 and were exposed (Krebs buffer, pH 7.4, 30° C.×15 mins) to graded concentrations of acrolein (1-1000 μM) alone or in combination with a 1,3-dicarbonyl derivative or control compound (500 μM). […] The respective IC50s and 95% confidence intervals were calculated by the […] (Prism 3.0, GraphPad Software). The selected 1,3-dicarbonyls are carbanion nucleophiles and, therefore, the analyses also included NAC as a representative thiolate-type nucleophile. Studies were conducted to assess the in vitro toxicity of the selected enol derivatives (FIG. 4).
Studies were carried out using isolated brain nerve terminals (striatal synaptosomes) exposed to acrolein as a model of electrophile-induced toxicity, as illustrated in FIG. 5A-5B. Acrolein is a soft electrophile that inhibits protein function by forming adducts with soft nucleophilic cysteine residues and thereby causes synaptosomal toxicity.

Male rats = experiment: 2-ACP toxicity in rats (14 day i.p. dosing); format: in vivo, rat; conditions: i.p. 100, 200 or 300 mg/kg/d×14 days
Experimental: as §2, §3

whole animal = conditions: cited from earlier work
[9] = co-incubation with test compound 500 μM

Compound | pKa [2] | fraction in the anionic enolate state [2] | protection against H2O2-induced cell death (MN9D cells [4]) | protection against acrolein-induced cell death (words) (MN9D cells [5]) | sulfhydryl (NAC) protection, pre-incubation [6] | rate of sulfhydryl loss (mean rate±SE) [6] [nmol SH sec^−1] | change in acrolein IC50 for inhibition of DA transport [7] | other results
CC(=O)C1CCCC1=O (stereo not drawn) [2-ACP, 2-acetylcyclopentanone] | 7.8 | ~50% | nearly complete protection | completely prevented cell death | completely preserved | – | – | EC50 [1]: 211 µM; DPPH scavenging rate, fold slower than curcumin ([3]; relative to curcumin): 30-40 fold; concentration dependence of protection against H2O2 (MN9D cells [4]): significant increases in the LC50 of H2O2; concentration dependence of protection against acrolein (MN9D cells [5]): significant increases in the LC50; water solubility (Aqueous solubility): water soluble; sulfhydryl (NAC) protection, co-incubation ([6]; all chemicals added simultaneously): complete sulfhydryl protection; reduction of plasma alanine transferase (ALT) relative to toxicant only (CCl4-intoxicated rats): 40%; reduction of plasma aspartate transferase (AST) relative to toxicant only (CCl4-intoxicated rats): 52%; increase in acrolein IC50 for 3H-DA transport inhibition [7, 9]: 15 fold; increase in acrolein IC50 for synaptosomal thiol loss [8, 9]: 15 fold; overt signs of toxicity (body weight loss, appearance, water/food consumption, gait, home cage behavior) (Male rats): did not cause overt signs of toxicity
CC(=O)CC(C)=O [AcAc, acetylacetone] | 8.9 | – | modestly effective | significantly increased the acrolein LC50 | modestly effective | −24.9±5 | largest increases in the acrolein IC50 | EC50 [1]: 909 µM; increase in enolate concentration [2]: ~100 fold; protection against H2O2-induced cytotoxicity (MN9D cells [4]): 3 fold; concentration dependence of protection against H2O2 (MN9D cells [4]): concentration-dependent protection; also recorded: significant increases in the LC50 of H2O2; concentration dependence of protection against acrolein (MN9D cells [5]): concentration-dependent protection; also recorded: significant increases in the LC50; increase in acrolein LC50 (MN9D cells [5]): ~7 fold; LD50 (whole animal): 175 mg/kg; rate of acrolein-induced sulfhydryl (NAC) loss (mean rate±95% confidence interval) [6]: -24.9 ± 3.6 nmol/s; rate of acrolein-induced sulfhydryl (NAC) loss ([6]; pH 9.0): -2.43 ± 2.2 nmol/s; thiol protection against acrolein at elevated pH ([6]; pH 9.0): substantially elevated; also recorded: completely protective
O=C1CCC(=O)C1 [CPD, 1,3-cyclopentanedione] | – | – | ineffective | completely prevented cell death | modestly effective | – | – | –
CCOC(=O)CC(=O)OCC [DEM, diethyl malonate] | 12.9 | < 0.1% | ineffective | neither DEM nor HD were effective | – | – | Neither DEM nor HD significantly affected | increase in enolate concentration [2]: ~100 fold; cytoprotection / thiol protection in acrolein-exposed synaptosomes [8]: not cytoprotective
CC1(C)CC(=O)CC(=O)C1 [DMD, 5,5-Dimethyl-1,3-cyclohexanedione] | 5.3 | 99% | – | did not provide protection | significant thiol protection | −2.4±0.3 | largest increases in the acrolein IC50 | protection against acrolein-induced cell death in serum-free medium (MN9D cells [5]): substantial increases in the acrolein LC50; cytoprotection / thiol protection in acrolein-exposed synaptosomes [8]: powerful cytoprotectant
O=C(O)CN(CCN(CC(=O)O)CC(=O)O)CC(=O)O [EDTA] | – | – | – | – | – | – | – | EC50 [1]: 31 µM
CC(=O)CCC(C)=O [HD, 2,5-hexanedione, reference compound] | – | – | ineffective | neither DEM nor HD were effective; also recorded: slight increase in LC50 | did not affect the rate of acrolein-induced thiol loss | – | Neither DEM nor HD significantly affected | ability to slow acrolein-induced NAC thiol loss [6]: not effective
CC(=O)C(C)C(C)=O [MPD, 3-methyl-2,4-pentanedione] | 10.8 | – | – | – | – | – | – | ability to slow acrolein-induced NAC thiol loss [6]: minimally protective
CC1(C)OC(=O)CC(=O)O1 [Meld. Acid, 2,2-dimethyl-1,3-dioxane-4,6-dione] | 4.8 | – | – | did not provide protection | significant thiol protection | – | largest increases in the acrolein IC50 | protection against acrolein-induced cell death in serum-free medium (MN9D cells [5]): substantial increases in the acrolein LC50
CC(=O)N[C@@H](CS)C(=O)O [NAC, N-acetyl cysteine, reference compound] | – | – | significantly less efficacious; also recorded: less protective | nearly complete protection; also recorded: completely prevented cell death | – | – | largest increases in the acrolein IC50 | Fe^2+ chelating activity [1]: little, if any, Fe^2+ chelating activity; DPPH radical scavenging [3]: modest free radical scavenging
CC(=O)CC(=O)C(F)(F)F [TFPD, 1,1,1,-trifluoro-2,4-pentanedione] | – | > 99% and 99% | modestly effective | significantly increased the acrolein LC50 | modestly effective | −52.1±5 | more modest | protection against H2O2-induced cytotoxicity (MN9D cells [4]): 3 fold; increase in acrolein LC50 (MN9D cells [5]): ~7 fold; thiol protection against acrolein at elevated pH ([6]; pH 9.0): none was observed; also recorded: did not increase; cytoprotection / thiol protection in acrolein-exposed synaptosomes [8]: some thiol protection
C=CC=O [acrolein] | – | – | – | – | – | −78.4±7 | – | rate of acrolein-induced sulfhydryl (NAC) loss (mean rate±95% confidence interval) [6]: -78.4 ± 6.2 nmol/s; IC50 ([7]; Rattus norvegicus, acrolein alone, 0.001-1 mM, read-out: IC50 of acrolein for decrease in membrane 3H-DA transport): 66 µM; IC50 ([8]; Rattus norvegicus, acrolein alone, 0.001-1 mM, read-out: IC50 of acrolein for loss of synaptosomal sulfhydryl groups): 74 µM
COc1cc(/C=C/C(=O)CC(=O)/C=C/c2ccc(O)c(OC)c2)ccc1O [curcumin, reference compound] | 8 | – | – | – | – | – | – | water solubility (Aqueous solubility): insolubility in aqueous solutions
